Patent US8889629B2, “Use of a cyclic undecapeptide for the preparation of a medicament for administration during myocardial ischaemic events” (Debiopharm International SA, priority 2005, dated 2014)

Key:
[1] = tested on: myocardial infarction (ischemia-reperfusion); experiment: Model of ischemia-reperfusion in the rabbit, cardioprotective effect (infarction size); assay type: in vivo
Protocol: The aim of this study is to test the cardioprotective effect of the cyclic undecapeptide of formula (I), otherwise referred to as [MeAla]^3-[EtVal]^4-CsA, in terms of reduction in the size of the myocardial infarction measured 4 hours after the occurrence of the infarction.
After tracheotomy and ventilation with ambient air, a thoracotomy is performed in the fourth left intercostal space. A marginal branch of the left circumflex coronary artery is ligatured using a 3.0 silk suture thread. During the procedure, the temperature, the heart rate and the blood pressure are controlled. After occlusion for 30 minutes, the ligature is released (reperfusion) and the animals are kept in a controlled atmosphere for 4 hours before euthanasia.
One group of animals receives the pharmaceutical carrier for [MeAla]^3-[EtVal]^4-CsA, another group is treated with [MeAla]^3-[EtVal]^4-CsA intravenously in the form of a single injection respectively of 20 mg/kg, one minute before the ligature is released. Four hours after the reperfusion, the coronary artery is briefly reoccluded and a blue dye is injected intravenously so as to determine the zone at risk. […] The areas of the zones at risk and of the infarcted myocardium or area of necroses are determined by planimetry. The size of the infarction and the size of the zone at risk are calculated and expressed as percentage of left ventricular weight.

[2] = tested on: myocardial infarction (ischemia-reperfusion); experiment: Model of ischemia-reperfusion in the mouse, post-infarction period (infarction size, ventricular remodeling, survival); assay type: in vivo
Protocol: After anesthesia, the mice are intubated and ventilated with a rodent ventilator. The rectal temperature is controlled and maintained at 38°-39° C. After sternotomy, the anterior interventricular artery is ligatured with an 8-0 polypropylene thread. The ischemia is visualized through the appearance of an elevated ST segment on the ECG (electrocardiogram) and the paleness of the myocardium. After 25 minutes of occlusion, the ligature is released and the reperfusion is verified by visual inspection and disappearance of the upshift in the ST segment. The thoracic wall is closed by suturing and the mice are kept in a controlled-temperature atmosphere.
One group of animals receives the carrier for [MeAla]^3-[EtVal]^4-CsA; another group is treated with [MeAla]^3-[EtVal]^4-CsA by intravenous injection (single injection at 10 mg/kg), 3 minutes before the ligature is released. The animals are monitored for 30 days and the mortality is reported for each group.
Four weeks after the reperfusion, the left ventricular remodeling is studied by Doppler echocardiography and the left ventricular ejection fraction is measured.
The zone at risk and the size of the infarction are determined in a group of animals that have undergone 25 minutes of coronary occlusion followed by 24 hours of reperfusion. After a brief reocclusion of the anterior interventricular artery, a blue dye is injected via the vena cava so as to determine the zone at risk. The animals are anesthetized and the heart is excised. The ventricle is cut into 5 thin slices and photographed. Incubation of these slices in 2,3,5-triphenyltetrazolium for 15 minutes at 37° C. makes it possible to differentiate the live (brick red) and necrosed (pale yellow) zones of the myocardium. The slices are photographed. The areas of the zones at risk and of the infarcted myocardium are determined by planimetry. The size of the infarction and the size of the zone at risk are calculated and expressed as percentage of left ventricular weight.

[3] = tested on: septic shock with myocardial dysfunction; experiment: Model of septic shock in the mouse (cecal ligature and puncture), survival; assay type: in vivo; details: 10 mg/kg parenteral injection just after induction of septic shock, 72 hours after induction of the sepsis (FIG. 2)
Protocol: After the mice had been anesthetized, a peritonitis is induced by cecal ligature and puncture, as follows: a median laparotomy is performed, the cecum is lifted out and a single puncture of said cecum is performed below the ileocecal valve with a 21-gauge needle. The cecum is put back into the abdominal cavity, which is then sutured in 2 planes. After the mice have come round, they are given a parenteral injection of the analgesic nalbuphine.
One group of animals receives physiological saline (control group); another group is treated with [MeAla]^3-[EtVal]^4-CsA at a rate of 10 mg/kg by parenteral injection just after surgical induction of septic shock. The animals are monitored for 4 days and the mortality is reported for each group.

[4] = tested on: human immunodeficiency virus; details: cited from earlier work
[5] = compared with cyclosporin A; cited from earlier work
[6] = tested on: MPTP of mitochondria isolated from the brain; details: Hansson et al. 2004; cited from earlier work

[MeAla]^3-[EtVal]^4-CsA
decrease in the size of the infarction in the zone at risk compared with pharmaceutical carrier ([1]; 20 mg/kg i.v., 4 hours after reperfusion): ~40% | Infarction size (AN/AR ± SD) ([1]; 30 min occlusion, single i.v. injection 20 mg/kg one minute before ligature release, measured 4 hours after reperfusion): 29 ± 6.0% | Left ventricular ejection fraction ± SD ([2]; mouse, 10 mg/kg i.v. 3 minutes before ligature release, Doppler echocardiography 4 weeks after reperfusion): 77 ± 6% | mortality rate at 4 weeks ([2]; mouse, 10 mg/kg i.v. 3 minutes before ligature release, vs carrier (FIG. 1)): a decrease in the mortality rate | decrease in the size of the infarction in the zone at risk ([2]; mouse, 10 mg/kg i.v., 24 hours after reperfusion, vs carrier (table 2)): ~50% | Infarction size (AN/AR ± SD) ([2]; mouse, 25 min occlusion, single i.v. injection 10 mg/kg 3 minutes before ligature release, 24 hours after reperfusion): 32.1 ± 7.3% | beneficial effects when administration is too early or too late relative to the reperfusion ([2]; same dose of active compound): not obtained | survival rate [3]: approximately 60% | activity in terms of inhibiting the action of the human immunodeficiency virus [4]: strong activity | immunosuppressive properties [5]: not having the well-known immunosuppressive properties | neuroprotective potential: inhibition of MPTP [6]: inhibition of MPTP
